Data: publication PMC8708704, “Discovery of New Chemical Tools against Leishmania amazonensis via the MMV Pathogen Box” (Pharmaceuticals, 2021)
Like-named read-outs stand apart in the source and are kept apart here.

Key:
[1] = test system: Leishmania amazonensis promastigotes; experiment: Leishmanicidal activity against promastigotes (alamarBlue assay; screening at 10 µM and IC50); format: cell-based; details: for % of inhibition at 10 µM (against L. amazonensis promastigotes): first screening; for % of inhibition at 10 µM (against L. amazonensis promastigotes) / IC50: 72 h; for IC50: read-out: Leishmania amazonensis Promastigotes IC50; for Selectivity Index (CC50/IC50), promastigotes: macrophage CC50 / promastigote IC50
Method: For the experiments, promastigotes of Leishmania amazonensis strain (MHOM/BR/77/LTB0016) were used; they were maintained in RPMI 1640 medium (Gibco, Massachusetts, USA) at 26 °C. […] Subsequently, the plates were analyzed on an EnSpire multimode plate reader (PerkinElmer, MA, USA) to measure their fluorescence after 72 h. […] To this end, serial dilutions were performed in 96 well plates, and incubated with the parasites for 72 h after adding alamarBlue®. Next, the plates were analyzed on the EnSpire plate reader and the IC50 values were calculated by using SigmaPlot 14.0 (Systat Software Inc., Chicago, IL, USA). Each concentration was tested in duplicate and in three independent experiments for all the compounds.

[2] = test system: Leishmania amazonensis intracellular amastigote; experiment: Intracellular amastigote activity (parasite rescue and transformation assay); format: cell-based; details: for IC50: Leishmania amazonensis, Macrophage, read-out: Leishmania amazonensis Intracellular Amastigote IC50; for Selectivity Index (CC50/IC50), intracellular amastigote: macrophage CC50 / amastigote IC50
Method: The intracellular amastigote activity was measured by parasite rescue and transformation assay, also performed according to Jain et al. […] The macrophages were placed in a 96 well plate at a density of 2 × 10^5/mL in DMEM and incubated for 5 h. […] After the incubation, the excess promastigotes were washed off and serial dilutions of the compounds were added. After 24 h of incubation, we removed the medium and added 30 μL of Schneider medium with 0.05% SDS to break the macrophages. The plate was shaken for 30 s and a further 180 μL of medium was added to each well. The plates were then incubated at 26 °C for 72 h for the transformation of the rescued amastigote into promastigotes. AlamarBlue® was added and the plates were measured and analyzed as discussed above.

[3] = Cytotoxic activity against murine macrophages (alamarBlue); details: mouse
[4] = design: method as in mmv.org; details: ref mmv.org; cited from earlier work
[5] = Leishmania amazonensis, alamarBlue
[6] = 24 h treatment of infected macrophages, rescue 72 h

SMILES	% of inhibition at 10 µM (against L. amazonensis promastigotes) [1]	other results
CNc1nnc(Sc2cnn(-c3ccccc3)c(=O)c2Cl)s1 [MMV688763]	86%	
Nc1ccc2ncnc(Nc3ccc(OCc4cccc(F)c4)c(Cl)c3)c2c1 [MMV688273]	79%	
Cc1cc(NCCc2ccccc2)nc(NC(=N)Nc2ccc(Cl)cc2)n1 [MMV021660]	87%	
COc1nc2ccc(Br)cc2cc1[C@@H](c1ccccc1)[C@@](O)(CCN(C)C)c1cccc2ccccc12 [Compound 1, Bedaquiline, reference compound]		IC50 ([1]; Leishmania amazonensis): 6.43 ± 1.06 µM; Selectivity Index (CC50/IC50), promastigotes [1]: >1.56; IC50 [2]: > 10 µM; CC50 at 24 h [3]: > 10 µM
CCCCOC(=O)Nc1cc2[nH]c(C3CCCCC3)nc2cc1N1CCCC1 [MMV687730]	87%	
NCCN(C(=O)c1ccc(Cl)cc1Cl)c1ccc(OCc2ccc(Cl)cc2)cc1 [MMV688371]	89%	
O=C(Nc1ccc(F)c(-c2nc3ncc(-c4ccccc4)cc3[nH]2)c1)N1CCCC1 [MMV688372]	87%	
Cc1nc(-c2ccccn2)nc(N2CCC(Cc3ccccc3)C2)c1Cl (stereo not shown) [MMV659004]	87%	
CC(=O)OC[C@H]1O[C@@H]([S-])[C@H](OC(C)=O)[C@@H](OC(C)=O)[C@@H]1OC(C)=O.CC[PH+](CC)CC.[Au] [MMV688978, reference compound]	90%	
N#Cc1nc(-c2ccccc2)oc1S(=O)(=O)c1ccc(Cl)cc1 [Compound 2]		IC50 [1, 5]: 4.03 ± 0.73 µM; Selectivity Index (CC50/IC50), promastigotes [1]: >2.48; IC50 [2, 6]: > 10 µM; CC50 at 24 h ([3]; J774A.1 murine macrophages): > 10 µM
Cn1c(=O)c2c(S(C)(=O)=O)snc2n(C)c1=O [Compound 4]		IC50 [1, 5]: < 2 µM; IC50 ([1]; alamarBlue): 1.44 ± 0.24 µM; Selectivity Index (CC50/IC50), promastigotes [1]: 2.94; IC50 [2, 6]: > 10 µM; CC50 at 24 h ([3]; J774A.1 murine macrophages): 4.3 ± 0.16 µM
O=C(c1ccco1)N(CCCn1ccnc1)c1nc2c(Cl)cccc2s1 [MMV688936]	90%	
CCCn1c(NC(=O)c2ccc3ccccc3n2)nc2ccccc21 [Compound 6]		IC50 [1, 5]: 3.93 ± 0.64 µM; Selectivity Index (CC50/IC50), promastigotes [1]: >2.54; IC50 [2, 6]: 8.52 ± 0.67 µM; Selectivity Index (CC50/IC50), intracellular amastigote [2]: >1.17; Glutathione Reactivity [4]: medium; CC50 at 24 h ([3]; J774A.1 murine macrophages): > 10 µM
COC(=O)c1c(NC(=O)c2c(F)c(F)c(F)c(F)c2F)sc2c1CCCCC2 [MMV461553]	88%	
COc1ccc(Oc2ccc([C@@H](C)N(C)c3ncc4c(N)nc(N)nc4n3)cc2)cc1 [MMV690102]	89%	
N=C(N)c1ccc(OCCCCCOc2ccc(C(=N)N)cc2)cc1 [MMV000062, reference compound]	89%	
CN1CCN(S(=O)(=O)c2ccc(-c3ccc4c(Nc5ncc(Cl)cn5)ccnc4c3)cc2)CC1 [MMV688283]	85%	
C[C@]1(COc2ccc(N3CCC(Oc4ccc(OC(F)(F)F)cc4)CC3)cc2)Cn2cc([N+](=O)[O-])nc2O1 [MMV688262]	86%	
Cc1ccc(S(=O)(=O)n2cc(-c3ccnc(N)c3)c3cc(Br)cnc32)cc1 [MMV024114]	92%	
CC(c1cc(Cl)cc(Cl)c1)N(C)c1ncc2c(N)nc(N)nc2n1 (stereo not shown) [MMV689437]	89%	
COc1nc2ccc(Br)cc2cc1[C@@H](c1ccccc1)[C@@](O)(CCN(C)C)c1cccc2ccccc12 [MMV689758, reference compound]	90%	
Cc1ncc(-c2ccnc(Nc3ccc(S(C)(=O)=O)cc3)n2)n1C(C)C [MMV676604]	66%	
CS(=O)(=O)c1ccc(C(=O)N(CC2CCCO2)c2nc3ccccc3s2)cc1[N+](=O)[O-] (stereo not shown) [MMV688761]	88%	
CCC(Sc1nc2ccccc2o1)C(=O)Nc1nccs1 (stereo not shown) [MMV676383]	83%	
Cc1[nH]c2cc(F)cc(F)c2c(=O)c1-c1ccc(Oc2ccc(OC(F)(F)F)cc2)cc1 [MMV671636]	66%	
Cc1cc(C2=NOC(c3cc(Cl)c(F)c(Cl)c3)(C(F)(F)F)C2)ccc1C(=O)NCc1ccc2c(c1)C(C)(C)OB2O (stereo not shown) [MMV687776]	52%	

SMILES	% of inhibition at 10 µM (against L. amazonensis promastigotes) [1]	other results
Cc1ccc(-c2nc(CN(Cc3ccccn3)C(C)C)cs2)o1 [MMV1088520]	89%	
Cc1cnc(N2CCN[C@@H](Cc3ccccc3)C2)nc1Oc1ccc(-n2ccnc2)cc1 [MMV687765]	82%	
COc1cccc(-c2nc3c(N4CCCC4)cccc3n2CC2CCCN2)n1 (stereo not shown) [MMV687703]	85%	
CC1(O)CC(c2nc(-c3ccc4ccc(-c5ccccc5)nc4c3)c3c(N)nccn23)C1 (stereo not shown) [MMV676605]	53%	
Cc1[nH]c2ccccc2c1C(c1cccs1)N1CCN(C)CC1 (stereo not shown) [MMV688768]	86%	
Cc1ccc(NC(=O)c2nc[nH]c2C(=O)Nc2nc3ccccc3[nH]2)c(C)c1 [MMV011903]	86%	
c1coc(CNc2nc(N3CCCCC3)nc3ccccc23)c1 [MMV676401]	84%	
O=C(Nc1ccc(C(F)(F)F)c(C(F)(F)F)c1)c1cc(Cl)ccc1O [MMV687807]	90%	
CN(C)c1cc(NC(=O)Nc2ccccc2)c2ccccc2n1 [MMV006901]	85%	
CC(C)n1nc(-c2cc3c(Cl)cccc3[nH]2)c2c(N)ncnc21 [MMV688417]	87%	
O[C@@H](c1cc(C(F)(F)F)nc2c(C(F)(F)F)cccc12)[C@H]1CCCCN1 [MMV000016, reference compound]	86%	
CCc1c(C)nc(-n2nc(C)cc2NC(=O)c2ccccc2SC)[nH]c1=O [MMV676477]	92%	
CC(C)N=c1cc2n(-c3ccc(Cl)cc3)c3ccccc3nc-2cc1Nc1ccc(Cl)cc1 [MMV687800, reference compound]	88%	
CO/N=C(/C(=O)OC)c1ccccc1CO/N=C(/C)c1cccc(C(F)(F)F)c1 [MMV688754]	76%	
Brc1cncc(-c2cc(NCCCn3ccnc3)nc(-c3ccccc3)n2)c1 [MMV661713]	84%	
N#Cc1nc(-c2ccccc2)oc1S(=O)(=O)c1ccc(Cl)cc1 [MMV676412]	93%	
CCOC(=O)c1c(NC(=O)c2c(F)c(F)c(F)c(F)c2F)sc(C(N)=O)c1C [MMV153413]	86%	
NC(N)=Nc1ccc(-c2ccc(-c3ccc(N=C(N)N)cc3Cl)o2)c(Cl)c1 [MMV688179]	86%	
CC(C)=CCC/C(C)=C\CNCCNC1C2CC3CC(C2)CC1C3 (stereo not shown) [MMV687273]	89%	
COc1cccc(-n2nnnc2S(C)(=O)=O)c1 [MMV272144]	89%	
CN1CCN(CCCOc2ncc(Nc3ncc(-c4ccc(C(F)(F)F)c(F)c4)nc3C(N)=O)cn2)CC1 [Compound 8]		IC50 [1, 5]: 2.62 ± 0.4 µM; Selectivity Index (CC50/IC50), promastigotes [1]: 3.06; IC50 [2, 6]: 6.85 ± 0.75 µM; Selectivity Index (CC50/IC50), intracellular amastigote [2]: 1.17; CC50 at 24 h ([3]; J774A.1 murine macrophages): 8.01 ± 1.13 µM
Cc1ccc2oc(-c3cc(NC(=O)Cc4ccccc4)ccc3Cl)nc2c1 [MMV676509]	80%	
COc1ccc2nccc(NC(=O)C3CCN(CCc4ccc(Cl)cc4)CC3)c2n1 [MMV688844]	80%	
O=C(Nc1cccc(Cl)c1)c1cnc(N2CCN(c3ccncc3)CC2)c(Cl)c1 [MMV024406]	92%	
CCOc1ccc(-c2nc(CNCCc3ccc(F)cc3)cs2)cc1 [MMV688938]	85%	
